# Measured values: article PMC5464637, “Identification of key amino acid residues in the hTGR5–nomilin interaction and construction of its binding model” (PLoS ONE, 2017)
# Residue numbers refer to the chain shown, from its start.
# Assays:
# hTGR5-WT = target: T1, hTGR5-WT (Homo sapiens, UniProt Q8TDU6); experiment: CRE-luciferase reporter assay in HEK293 cells transfected with hTGR5-WT; type: cell-based; conditions: for agonist activity (CRE-luciferase response): hTGR5-WT, 100 μM, 5 h, HEK293
# T1 construct: expressed in transfected cells; host or cells: HEK293
# T1 sequence (Q8TDU6 1-330): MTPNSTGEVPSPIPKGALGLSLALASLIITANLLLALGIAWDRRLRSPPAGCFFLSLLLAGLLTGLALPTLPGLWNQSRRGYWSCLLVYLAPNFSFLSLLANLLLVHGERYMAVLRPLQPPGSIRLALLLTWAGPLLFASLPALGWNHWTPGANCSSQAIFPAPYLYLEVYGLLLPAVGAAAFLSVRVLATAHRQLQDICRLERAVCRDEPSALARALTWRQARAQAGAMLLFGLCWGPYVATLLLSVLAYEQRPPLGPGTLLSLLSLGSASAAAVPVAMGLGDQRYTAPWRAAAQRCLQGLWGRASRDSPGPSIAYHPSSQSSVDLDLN
# Method: (§1) HEK293 cells were plated in 12-well plates at a density of 1.0 × 10^5 cells/well. Twenty hours later, the cells were transfected with pCRE-Luc, p3×FLAG-CMV-TGR5, and pEF-β-galactosidase (100 ng/well each) using the calcium phosphate method. After 4 h of incubation, the medium was replaced with DMEM, which contained 10% dextran charcoal-stripped FBS. Twenty-four hours after transfection, the cells were treated with the previously mentioned compounds and control vehicle (DMSO). After 5 h, the cells were then incubated with lysis buffer (25 mM Tris-phosphate [pH 7.8], 2 mM dithiothreitol [DTT], 2 mM trans-1,2-Diaminocyclohexane-N,N,N, N′-tetraacetic acid [CDTA], 10% glycerol, and 1% Triton X-100) on ice, and the luciferase and β-galactosidase activity were measured. The luciferase activity values were divided by those of β-galactosidase to obtain normalized luciferase values.
# mTGR5-WT = target: T2, mTGR5-WT (Mus musculus, UniProt Q80SS6); experiment: CRE-luciferase reporter assay in HEK293 cells transfected with mTGR5-WT; type: cell-based; conditions: for agonist activity (CRE-luciferase response): 100 μM, 5 h, HEK293; for EC50: CRE-luciferase dose-response, HEK293, n = 3
# T2 construct: expressed in transfected cells; host or cells: HEK293
# T2 sequence (Q80SS6 1-329): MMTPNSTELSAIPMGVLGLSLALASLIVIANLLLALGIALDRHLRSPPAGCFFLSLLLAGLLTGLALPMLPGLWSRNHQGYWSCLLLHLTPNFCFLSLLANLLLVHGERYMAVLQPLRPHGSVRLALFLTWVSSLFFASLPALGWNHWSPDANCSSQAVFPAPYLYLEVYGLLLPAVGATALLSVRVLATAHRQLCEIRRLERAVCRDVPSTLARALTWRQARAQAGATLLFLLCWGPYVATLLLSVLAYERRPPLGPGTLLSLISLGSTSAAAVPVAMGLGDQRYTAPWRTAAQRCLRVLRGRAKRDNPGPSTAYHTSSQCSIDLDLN
# Method: as §1
# hTGR5-Q77A/R80A/Y89A = conditions: 100 μM, 5 h, HEK293
# Method: as §1
# (PDF) Click here for additional data file.
# mTGR5-R76Q/Q79R/H88Y = target: T3, mTGR5-R76Q/Q79R/H88Y (Mus musculus, UniProt Q80SS6, H88Y/Q79R/R76Q); experiment: CRE-luciferase reporter assay in HEK293 cells transfected with mouse-to-human triple mutant TGR5; conditions: for agonist activity (CRE-luciferase response): mTGR5-R76Q/Q79R/H88Y, HEK293
# T3 sequence (Q80SS6 1-329 R76Q/Q79R/H88Y): T2 sequence (Q80SS6 1-329) with R76Q, Q79R, H88Y
# hTGR5-Q77R/R80Q/Y89H = target: T4, hTGR5-Q77R/R80Q/Y89H (Homo sapiens, UniProt Q8TDU6, Q77R/R80Q/Y89H); experiment: CRE-luciferase reporter assay in HEK293 cells transfected with human-to-mouse triple mutant TGR5; conditions: for EC50: CRE-luciferase dose-response, HEK293, n = 3; for agonist activity (CRE-luciferase response): HEK293
# T4 sequence (Q8TDU6 1-330 Q77R/R80Q/Y89H): T1 sequence (Q8TDU6 1-330) with Q77R, R80Q, Y89H
SMILES,agonist activity (CRE-luciferase response) (hTGR5-WT),EC50 (hTGR5-WT) [µM],agonist activity (CRE-luciferase response) (mTGR5-WT),EC50 (mTGR5-WT),agonist activity (CRE-luciferase response) (hTGR5-Q77A/R80A/Y89A),EC50 (mTGR5-R76Q/Q79R/H88Y) [µM],agonist activity (CRE-luciferase response) (mTGR5-R76Q/Q79R/H88Y),EC50 (hTGR5-Q77R/R80Q/Y89H),agonist activity (CRE-luciferase response) (hTGR5-Q77R/R80Q/Y89H)
CC1(C)O[C@H]2CC(=O)OC[C@]23[C@H]2CC[C@@]4(C)[C@H](c5ccoc5)OC(=O)[C@H]5O[C@]54[C@]2(C)C(=O)C[C@@H]13 [limonin],very weak hTGR5 agonist activity,–,–,–,–,–,–,–,–
CC(=O)O[C@H]1CC(=O)OC(C)(C)[C@@H]2CC(=O)[C@]3(C)[C@H](CC[C@@]4(C)[C@H](c5ccoc5)OC(=O)[C@H]5O[C@]543)[C@@]12C [nomilin],–,23.6,considerably weaker agonist activity for mTGR5 than it does for hTGR5,undetectable,very weak nomilin response relative to WT-hTGR5,46.2,strong nomilin response equal to that of hTGR5-WT,undetectable,very weak nomilin response identical to that of mTGR5
CC1(C)OC(=O)C=C[C@]2(C)[C@H]3CC[C@@]4(C)[C@H](c5ccoc5)OC(=O)[C@H]5O[C@]54[C@]3(C)C(=O)C[C@@H]12 [obacunone],stronger agonist activity for hTGR5 than it does for mTGR5,147,very weak obacunone response,undetectable,–,165,equally intense obacunone responses,undetectable,very weak obacunone response
